Measurements reported in the supplement of paper PMC10307832.

Experiments:
Assay in all cases: relative viability (nuclei count vs DMSO), 5 days (fraction); higher = more cells survive
Everolimus + Bortezomib = compound: CO[C@H]1C[C@@H]2CC[C@@H](C)[C@@](O)(O2)C(=O)C(=O)N2CCCC[C@H]2C(=O)O[C@H]([C@H](C)C[C@@H]2CC[C@@H](OCCO)[C@H](OC)C2)CC(=O)[C@H](C)/C=C(\C)[C@@H](O)[C@@H](OC)C(=O)[C@H](C)C[C@H](C)/C=C/C=C/C=C/1C [Everolimus] + CC(C)C[C@H](NC(=O)[C@H](Cc1ccccc1)NC(=O)c1cnccn1)B(O)O [Bortezomib] (partner 0.002 µM)
Procedure, shortened: (§1)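 Lung cancer cell lines, seeded in 1536-well plates, were treated the following day by pin tool with a single drug or with five library-drug doses (not always all listed) in √10 steps on top of a fixed anchor-drug dose. Cells were fixed and nuclei stained in one step after 5 days, and nuclei were counted. Relative viability is the nuclei count for treated wells divided by that for vehicle wells, reported as medians of duplicate plates.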

Everolimus + Lapatinib = compound: CO[C@H]1C[C@@H]2CC[C@@H](C)[C@@](O)(O2)C(=O)C(=O)N2CCCC[C@H]2C(=O)O[C@H]([C@H](C)C[C@@H]2CC[C@@H](OCCO)[C@H](OC)C2)CC(=O)[C@H](C)/C=C(\C)[C@@H](O)[C@@H](OC)C(=O)[C@H](C)C[C@H](C)/C=C/C=C/C=C/1C [Everolimus] + CS(=O)(=O)CCNCc1ccc(-c2ccc3ncnc(Nc4ccc(OCc5cccc(F)c5)c(Cl)c4)c3c2)o1 [Lapatinib] (partner 2 µM)
Procedure, shortened: as §1

Everolimus + AZD7762 = compound: CO[C@H]1C[C@@H]2CC[C@@H](C)[C@@](O)(O2)C(=O)C(=O)N2CCCC[C@H]2C(=O)O[C@H]([C@H](C)C[C@@H]2CC[C@@H](OCCO)[C@H](OC)C2)CC(=O)[C@H](C)/C=C(\C)[C@@H](O)[C@@H](OC)C(=O)[C@H](C)C[C@H](C)/C=C/C=C/C=C/1C [Everolimus] + NC(=O)Nc1cc(-c2cccc(F)c2)sc1C(=O)N[C@H]1CCCNC1 [AZD7762] (partner 0.2 µM)
Procedure, shortened: as §1

Everolimus + Decitabine = compound: CO[C@H]1C[C@@H]2CC[C@@H](C)[C@@](O)(O2)C(=O)C(=O)N2CCCC[C@H]2C(=O)O[C@H]([C@H](C)C[C@@H]2CC[C@@H](OCCO)[C@H](OC)C2)CC(=O)[C@H](C)/C=C(\C)[C@@H](O)[C@@H](OC)C(=O)[C@H](C)C[C@H](C)/C=C/C=C/C=C/1C [Everolimus] + Nc1ncn([C@H]2C[C@H](O)[C@@H](CO)O2)c(=O)n1 [Decitabine] (partner 2 µM)
Procedure, shortened: as §1

| Cell Line | relative viability (Everolimus + Bortezomib; first compound 0.01 µM) | relative viability (Everolimus + Bortezomib; first compound 0.03162 µM) | relative viability (Everolimus + Bortezomib; first compound 0.1 µM) | relative viability (Everolimus + Bortezomib; first compound 0.3162 µM) | relative viability (Everolimus + Bortezomib; first compound 1 µM) | relative viability (Everolimus + Lapatinib; first compound 0.01 µM) | relative viability (Everolimus + Lapatinib; first compound 0.03162 µM) | relative viability (Everolimus + Lapatinib; first compound 0.1 µM) | relative viability (Everolimus + Lapatinib; first compound 0.3162 µM) | relative viability (Everolimus + Lapatinib; first compound 1 µM) | relative viability (Everolimus + AZD7762; first compound 0.01 µM) | relative viability (Everolimus + AZD7762; first compound 0.03162 µM) | relative viability (Everolimus + AZD7762; first compound 0.1 µM) | relative viability (Everolimus + AZD7762; first compound 0.3162 µM) | relative viability (Everolimus + AZD7762; first compound 1 µM) | relative viability (Everolimus + Decitabine; first compound 0.01 µM) | relative viability (Everolimus + Decitabine; first compound 0.03162 µM) | relative viability (Everolimus + Decitabine; first compound 0.1 µM) | relative viability (Everolimus + Decitabine; first compound 0.3162 µM) | relative viability (Everolimus + Decitabine; first compound 1 µM) |
| --- | --- | --- | --- | --- | --- | --- | --- | --- | --- | --- | --- | --- | --- | --- | --- | --- | --- | --- | --- | --- |
| NCI-H2126 | 0.736 | 0.668 | 0.66 | 0.714 | 0.738 | 0.458 | 0.485 | 0.426 | 0.472 | 0.501 | 0.688 | 0.598 | 0.629 | 0.688 | 0.703 | 0.484 | 0.421 | 0.452 | 0.505 | 0.497 |
| NCI-H2347 | 0.749 | 0.658 | 0.752 | 0.602 | 0.528 | 0.813 | 1.07 | 0.663 | 0.868 | 0.811 | 0.651 | 0.618 | 0.576 | 0.622 | 0.439 | 0.567 | 0.509 | 0.553 | 0.526 | 0.548 |
| NCI-H2405 | 0.783 | 1.07 | 0.783 | 0.726 | 0.744 | 0.84 | 0.903 | 0.712 | 0.872 | 0.796 | 0.655 | 0.652 | 0.657 | 0.637 | 0.662 | 0.521 | 0.531 | 0.539 | 0.532 | 0.52 |
| NCI-H3122 | 1.05 | 1.16 | 1.06 | 1.08 | 1.01 | 1.09 | 1.16 | 1.06 | 1.07 | 0.951 | 0.75 | 0.765 | 0.711 | 0.629 | 0.725 | 0.267 | 0.253 | 0.213 | 0.215 | 0.203 |
| PC-3 [JPC-3] | 0.703 | 0.798 | 0.846 | 0.774 | 0.889 | 0.372 | 0.382 | 0.346 | 0.359 | 0.412 | 0.58 | 0.499 | 0.615 |  | 0.647 | 0.813 | 0.794 | 0.687 |  | 0.802 |
| PC-14 | 0.876 | 0.84 | 0.864 | 0.658 | 0.713 | 0.231 | 0.226 | 0.22 | 0.192 | 0.234 | 0.201 | 0.204 | 0.171 | 0.145 | 0.163 | 0.276 | 0.26 | 0.235 | 0.296 | 0.293 |
| RERF-LC-KJ | 0.92 | 0.621 | 0.731 | 0.64 | 0.611 | 0.636 | 0.597 | 0.503 | 0.487 | 0.486 | 0.566 | 0.415 | 0.462 | 0.507 | 0.598 | 0.535 | 0.594 | 0.552 | 0.541 | 0.45 |
